Laboratory results as given in paper PMC11845477, “Exploring the principles behind antibiotics with limited resistance” (Nature Communications, 2025).
Where two headings read alike, the source gives them in different places.

Assays:
[1] = test system: K. pneumoniae ATCC 10031 (SEN) and K. pneumoniae ATCC 700603 (MDR); test: Frequency-of-resistance (FoR) assay, relative MIC of mutants; type: cell-based, Klebsiella pneumoniae; conditions: for Relative MIC: Klebsiella pneumoniae ATCC 10031 (KP-SEN); for MIC: Klebsiella pneumoniae, read-out: MIC of evolved line, Klebsiella pneumoniae ATCC 10031 (KP-SEN)
Description: The susceptibility of antibiotics to resistance development was evaluated in two strains of each bacterial species: a multidrug-resistant strain and an antibiotic-sensitive strain of Escherichia coli, Klebsiella pneumoniae, Acinetobacter baumannii, and Pseudomonas aeruginosa. To explore first-step resistance, we previously used a standard protocol for spontaneous frequency-of-resistance analysis (FoR assay) at multiple concentrations of each antibiotic[10],[28],[31]–[33]. […] For all other combinations, approximately 10^10 bacterial cells were exposed to one of each antibiotic on agar plates for two days at concentrations where the given strain is susceptible. We examined resistance levels by contrasting the minimum inhibitory concentration (MICs) of the mutated strains to the original wild-type bacterial strain (i.e., relative MIC).
To estimate the frequency of spontaneous mutations that confer resistance in a microbial population, we conducted a frequency of resistance (FoR) assay following established protocols[10],[31]–[33]. […] Prior to plating, bacteria were grown overnight in MHB medium at 37 °C and 250 RPM, then centrifuged and washed in MHB. All experiments were performed in triplicate, and plates were incubated at 37 °C for 48 hours. Total colony-forming units (CFUs) were determined by plating appropriate dilutions onto antibiotic-free MHB agar. Resistance frequencies were calculated by dividing the number of resistant colonies by the initial viable cell count. From the plates with the highest antibiotic concentration, ten colonies were selected for MIC determination and whole-genome sequencing.
(§1) A robotic liquid handling system was used to automatically prepare a 11 to 16-step serial dilution in 384-well microtiter plates (Greiner). A final concentration of 5 × 10^5 bacterial cells per mL were inoculated into each well containing 60 µL MHB medium. Bacterial cultures were incubated at 37 °C with continuous shaking (Infors shaker, 900 rpm with 3 mm throw) for 18 hours (2 replicates from each). Cell growth was monitored by measuring the optical density (OD600 values, using Biotek Synergy microplate reader). MIC was defined as the antibiotic concentration of complete growth inhibition (i.e., OD600 < 0.05). Relative MIC was calculated as follows:1 relativeMIC=MICevolved/MICancestor […]
Supplementary Figure 3. Resistance levels following the frequency of resistance assay across bacterial strains. The level of resistance was measured as the fold change in relative MIC between evolved and ancestral strains. Data are grouped by bacterial strain (A. baumannii (AB), E. coli (EC), K. pneumoniae (KP), and P. aeruginosa (PA)) and categorized as either multidrug-resistant (MDR) or sensitive (SEN). Each data point represents a laboratory evolved line, and boxplots show the median, first and third quartiles, with whiskers indicating the 5th and 95th percentiles. […]
analysis was performed using two-sided Dunn’s post-hoc test with Benjamini-Hochberg correction for multiple comparisons (**/ * indicates p < 0.01/ 0.05). For detailed information on antibiotic and bacterial species, see Supplementary Table 1. For mode of action groups, refer to Table 1. Source data are provided as a Source Data file.

[2] = test system: K. pneumoniae ATCC 10031 (SEN) and K. pneumoniae ATCC 700603 (MDR); test: Adaptive laboratory evolution (ALE), relative MIC of evolved lines; type: cell-based, Klebsiella pneumoniae
Source text: Using the same set of bacterial strains, we initiated adaptive laboratory evolution with the aim to maximize the level of antibiotic resistance in the populations achieved during a longer, but fixed time period.
An established protocol for adaptive laboratory evolution[46],[73] was followed to propagate populations with the highest resistance levels. Starting with an antibiotic concentration that caused approximately 50% growth inhibition, ten parallel populations for each antibiotic-ancestor strain combination were grown for 72 hours at 37 °C with continuous shaking (300 RPM). MHB broth medium was used unless stated otherwise. After each incubation, 20 µl of each culture was transferred to four new wells containing fresh medium with increasing antibiotic concentrations (0.5×, 1×, 1.5×, and 2.5× the previous concentration) in a chessboard layout to monitor potential cross-contamination. Growth was monitored by measuring OD600 using a Biotek Synergy 2 microplate reader, and only populations grown in the highest drug concentration with an OD600 > 0.2 were transferred further.
as §1
Supplementary Figure 4. Resistance levels following adaptive laboratory evolution across bacterial strains. The level of resistance was measured as the fold change in relative MIC between evolved and ancestral strains after ~60 days of adaptive laboratory evolution. Data are grouped by bacterial strain (A. baumannii (AB), E. coli (EC), K. pneumoniae (KP), and P. aeruginosa (PA)) and categorized as either multidrug-resistant (MDR) or sensitive (SEN). Each data point represents a laboratory evolved line, and boxplots show the median, first and third quartiles, with whiskers indicating the 5th and 95th percentiles.
Statistical analysis was performed using two-sided Dunn’s post-hoc test with Benjamini-Hochberg correction for multiple comparisons (****/ ***/ **/ * indicates p < 0.0001/ 0.001/ 0.01/ 0.05). For detailed information on antibiotic and bacterial species, see Supplementary Table 1. For mode of action groups, refer to Table 1. Source data are provided as a Source Data file.

## CN(C)c1cc(CNCC(C)(C)C)c(O)c2c1C[C@H]1C[C@H]3[C@H](N(C)C)C(O)=C(C(N)=O)C(=O)[C@@]3(O)C(O)=C1C2=O [Omadacycline]
[1]; evolved line 1 versus ancestor
  Relative MIC: 32
[1]; evolved line 2 versus ancestor
  Relative MIC: 16
[1]; evolved line 3 versus ancestor
  Relative MIC: 16
[1]; evolved line 1
  MIC: 32 µg/mL
[1]; evolved line 2
  MIC: 16 µg/mL
[1]; evolved line 3
  MIC: 16 µg/mL
[2]; KP-SEN (Klebsiella pneumoniae ATCC 10031), evolved line 1
  Relative MIC: 128
[2]; KP-SEN (Klebsiella pneumoniae ATCC 10031), evolved line 1 adapted to the named antibiotic
  Relative MIC (log10): 2.107
[2]; KP-SEN (Klebsiella pneumoniae ATCC 10031), evolved line 2
  Relative MIC: 128
[2]; KP-SEN (Klebsiella pneumoniae ATCC 10031), evolved line 2 adapted to the named antibiotic
  Relative MIC (log10): 2.107
[2]; KP-SEN (Klebsiella pneumoniae ATCC 10031), evolved line 3
  Relative MIC: 64
[2]; KP-SEN (Klebsiella pneumoniae ATCC 10031), evolved line 4
  Relative MIC: 64
[2]; KP-SEN (Klebsiella pneumoniae ATCC 10031), evolved line 5 adapted to the named antibiotic
  Relative MIC (log10): 2.107
[2]; KP-SEN (Klebsiella pneumoniae ATCC 10031), evolved line 6
  Relative MIC: 128
[2]; KP-SEN (Klebsiella pneumoniae ATCC 10031), evolved line 6 adapted to the named antibiotic
  Relative MIC (log10): 2.107
[2]; KP-SEN (Klebsiella pneumoniae ATCC 10031), evolved line 8
  Relative MIC: 64
[2]; KP-SEN (Klebsiella pneumoniae ATCC 10031), evolved line 9
  Relative MIC: 128
[2]; KP-SEN (Klebsiella pneumoniae ATCC 10031), evolved line 9 adapted to the named antibiotic
  Relative MIC (log10): 2.107
[2]; KP-SEN (Klebsiella pneumoniae ATCC 10031), evolved line 10
  Relative MIC: 128
[2]; KP-SEN ATCC 10031, evolved line 1, evolved line vs ancestor
  Relative MIC: 128
[2]; KP-SEN ATCC 10031, evolved line 2, evolved line vs ancestor
  Relative MIC: 128
[2]; KP-SEN ATCC 10031, evolved line 3, evolved line vs ancestor
  Relative MIC: 64
[2]; KP-SEN ATCC 10031, evolved line 4, evolved line vs ancestor
  Relative MIC: 64
[2]; KP-SEN ATCC 10031, evolved line 5, evolved line vs ancestor
  Relative MIC: 128
[2]; KP-SEN ATCC 10031, evolved line 6, evolved line vs ancestor
  Relative MIC: 128
[2]; KP-SEN ATCC 10031, evolved line 7, evolved line vs ancestor
  Relative MIC: 32
[2]; KP-SEN ATCC 10031, evolved line 8, evolved line vs ancestor
  Relative MIC: 64
[2]; KP-SEN ATCC 10031, evolved line 9, evolved line vs ancestor
  Relative MIC: 128
[2]; KP-SEN ATCC 10031, evolved line 10, evolved line vs ancestor
  Relative MIC: 128
[2]; KP-SEN, Klebsiella pneumoniae ATCC 10031, evolved line 5
  Relative MIC: 128
[2]; KP-SEN, Klebsiella pneumoniae ATCC 10031, evolved line 7
  Relative MIC: 32
